Experimental data from ChEMBL document CHEMBL1201862, “PubChem BioAssay data set” (2004).
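Compound exposure: 48 hours, 5 concentrations, 96-well plates. Abbreviation: GI50, concentration required for 50% inhibition of growth.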 Calls of active or inactive are those of the source. Cut-off read from the data, not from the text of the source: active = GI50 up to about 1.1 µM and inactive = higher.

What was measured:
Test in all cases: NCI tumour cell line growth inhibition, 48 h
DMS-114 = test system: DMS-114
CAKI-1 = test system: CAKI-1
SK-OV-3 = test system: SK-OV-3
TK-10 = test system: TK-10
HCC 2998 = test system: HCC 2998
K562 = test system: K562
OVCAR-8 = test system: OVCAR-8
SK-MEL-2 = test system: SK-MEL-2
HL-60 = test system: HL-60
SR = test system: SR
IGROV-1 = test system: IGROV-1
NCI-H460 = test system: NCI-H460
ACHN = test system: ACHN
BT-549 = test system: BT-549
DU-145 = test system: DU-145
MDA-MB-231 = test system: MDA-MB-231
MDA-N = test system: MDA-N
PC-3 = test system: PC-3
MCF7 = test system: MCF7

Row | Compound | GI50 (DMS-114) | GI50 (CAKI-1) | GI50 (SK-OV-3) | GI50 (TK-10) | GI50 (HCC 2998) | GI50 (K562) | GI50 (OVCAR-8) | GI50 (SK-MEL-2) | GI50 (HL-60) | GI50 (SR) | GI50 (IGROV-1) | GI50 (NCI-H460) | GI50 (ACHN) | GI50 (BT-549) | GI50 (DU-145) | GI50 (MDA-MB-231) | GI50 (MDA-N) | GI50 (PC-3) | GI50 (MCF7)
1 | COC(=O)C1(C)NCCc2c1[nH]c1ccccc21 (stereo not drawn) | > 100 µM (inactive) | > 100 µM (inactive) | > 100 µM (inactive) | > 100 µM (inactive) | > 100 µM (inactive) | > 100 µM (inactive) | > 100 µM (inactive) | > 100 µM (inactive) | > 10 µM (inactive) | > 100 µM (inactive) | > 100 µM (inactive) |  |  |  |  |  |  |  | 
2 | C=C1CCC(OC(C)=O)C2(C)C(OC(C)=O)CC3OC3(C)C2C(OC(C)=O)C2C(C)C(=O)OC2C1Cl (stereo not drawn) | > 100 µM (inactive) | > 100 µM (inactive) | > 100 µM (inactive) | > 100 µM (inactive) | > 100 µM (inactive) | > 100 µM (inactive) | > 100 µM (inactive) | > 100 µM (inactive) | > 100 µM (inactive) | > 100 µM (inactive) | > 100 µM (inactive) | > 100 µM (inactive) | > 100 µM (inactive) |  |  |  |  |  | 
3 | Cc1nc2ccccn2c1/N=N/c1ccc(C(=O)NN)cc1 | 17.4 µM (inactive) | 22.2 µM (inactive) | 48 µM (inactive) | 23 µM (inactive) | 75.7 µM (inactive) | 49.8 µM (inactive) | 95.3 µM (inactive) |  | 9.31 µM (inactive) |  | 21.7 µM (inactive) |  | 36 µM (inactive) |  |  |  |  |  | 
4 | CN(C)C(=N)c1ccccc1 | > 100 µM (inactive) | > 100 µM (inactive) |  | > 100 µM (inactive) | > 100 µM (inactive) |  | > 100 µM (inactive) | > 100 µM (inactive) | > 100 µM (inactive) | > 100 µM (inactive) |  | > 100 µM (inactive) |  |  |  |  |  |  | 
5 | COC(=O)C1CC2CC(=NNC(N)=O)CC2C1 (stereo not drawn) | > 100 µM (inactive) | > 100 µM (inactive) | > 100 µM (inactive) | > 100 µM (inactive) | > 100 µM (inactive) | > 100 µM (inactive) | > 100 µM (inactive) | > 100 µM (inactive) | > 100 µM (inactive) |  | > 100 µM (inactive) | > 100 µM (inactive) | > 100 µM (inactive) |  |  |  |  |  | 
6 | CCc1ccccc1N1C(=O)C(=O)C(c2nc3ccccc3s2)C(=O)C1=O | 79.3 µM (inactive) | > 100 µM (inactive) | > 100 µM (inactive) | > 100 µM (inactive) | > 100 µM (inactive) | 44.3 µM (inactive) | 41.8 µM (inactive) | > 100 µM (inactive) | 40.3 µM (inactive) | 55 µM (inactive) | > 100 µM (inactive) | > 100 µM (inactive) | > 100 µM (inactive) |  |  |  |  |  | 
7 | C[C@]12CCC(=O)C(OC(=O)c3ccc([N+](=O)[O-])cc3)=C1CCC2=O | > 100 µM (inactive) | > 100 µM (inactive) | > 100 µM (inactive) | > 100 µM (inactive) | > 100 µM (inactive) |  | > 100 µM (inactive) |  | > 100 µM (inactive) | > 100 µM (inactive) | > 100 µM (inactive) | > 100 µM (inactive) | > 100 µM (inactive) |  |  |  |  |  | 
8 | COC(=O)CCC(NC(=S)N/N=C(\C)c1cnccn1)C(=O)OC (stereo not drawn) | 22.1 µM (inactive) |  | > 100 µM (inactive) | > 100 µM (inactive) | 56.5 µM (inactive) | 22.9 µM (inactive) | 38.6 µM (inactive) | 68.1 µM (inactive) | 14.8 µM (inactive) | 29.2 µM (inactive) | 69.8 µM (inactive) | 53 µM (inactive) | 29.8 µM (inactive) |  |  |  |  |  | 
9 | CC1=C(C(=O)Nc2ccccc2C)C(c2ccc(C3C(C(=O)Nc4ccccc4C)=C(C)NC(C)=C3C(=O)Nc3ccccc3C)cc2)C(C(=O)Nc2ccccc2C)=C(C)N1 | 3.75 µM (inactive) | 7.1 µM (inactive) | 15.3 µM (inactive) | 10.7 µM (inactive) | 4.51 µM (inactive) | 2.87 µM (inactive) | 2.8 µM (inactive) | 9.23 µM (inactive) | 2.53 µM (inactive) | 2.67 µM (inactive) | 3.16 µM (inactive) | 9.04 µM (inactive) | 4.52 µM (inactive) | 2.75 µM (inactive) | 15.9 µM (inactive) | 2.29 µM (inactive) | 5.6 µM (inactive) | 4.39 µM (inactive) | 3.37 µM (inactive)
10 | N#CC(C#N)=c1ccc(=C2N3CCCC3CN2C23CC4CC(CC(C4)C2)C3)cc1 (stereo not drawn) | > 100 µM (inactive) |  | > 100 µM (inactive) | 76.4 µM (inactive) | > 100 µM (inactive) | > 100 µM (inactive) | > 100 µM (inactive) | > 100 µM (inactive) | > 100 µM (inactive) | > 100 µM (inactive) | > 100 µM (inactive) | > 100 µM (inactive) | > 100 µM (inactive) |  |  |  |  |  | 
11 | Cc1ccc(S(=O)(=O)N/N=C2\C(=O)C3CC2C(Cl)C3Cl)cc1 (stereo not drawn) | > 100 µM (inactive) | > 100 µM (inactive) | > 100 µM (inactive) | > 100 µM (inactive) | > 100 µM (inactive) | > 100 µM (inactive) | > 100 µM (inactive) |  | > 100 µM (inactive) | > 100 µM (inactive) | > 100 µM (inactive) | > 100 µM (inactive) | > 100 µM (inactive) |  |  |  |  |  | 
12 | CCC12C=C(C(=O)OC)N3c4ccccc4C4CCN(CCC1)C2C43 (stereo not drawn) | 63 µM (inactive) | 35.6 µM (inactive) | > 100 µM (inactive) | > 100 µM (inactive) | 29.7 µM (inactive) | 37.7 µM (inactive) | > 100 µM (inactive) | > 100 µM (inactive) | 78.9 µM (inactive) |  | > 100 µM (inactive) |  | 62.5 µM (inactive) |  |  |  |  |  | 
13 | NC(=O)C(=O)Cc1nc2ccccc2s1 | > 100 µM (inactive) |  | > 100 µM (inactive) | > 100 µM (inactive) | > 100 µM (inactive) | > 100 µM (inactive) | > 100 µM (inactive) | > 100 µM (inactive) | > 100 µM (inactive) |  |  | > 100 µM (inactive) | > 100 µM (inactive) |  |  |  |  |  | 
14 | CC1=N/C(=C\c2cccc3ccccc23)C(=O)O1 | > 100 µM (inactive) |  |  | > 100 µM (inactive) | > 100 µM (inactive) | > 100 µM (inactive) | > 100 µM (inactive) | > 100 µM (inactive) | > 100 µM (inactive) |  | > 100 µM (inactive) | > 100 µM (inactive) | > 100 µM (inactive) |  |  |  |  |  | 
15 | O=C(CC1Sc2ccccc2NC1=O)Nc1ccc([N+](=O)[O-])cc1[N+](=O)[O-] (stereo not drawn) | 14.2 µM (inactive) |  |  | 41.3 µM (inactive) | 50.9 µM (inactive) |  | 16.5 µM (inactive) | 19.5 µM (inactive) | 17.8 µM (inactive) |  | 17.4 µM (inactive) | 23.7 µM (inactive) | 15.3 µM (inactive) |  |  |  |  |  | 
16 | CC1(C)C2CCC13CS(=O)(=O)N1O[C@]13C(=O)O2 (stereo partly drawn) | > 100 µM (inactive) |  |  | > 100 µM (inactive) | > 100 µM (inactive) | > 100 µM (inactive) | > 100 µM (inactive) | > 100 µM (inactive) | > 100 µM (inactive) | > 100 µM (inactive) | > 100 µM (inactive) | > 100 µM (inactive) | > 100 µM (inactive) |  |  |  |  |  | 
17 | COc1ccc2nc3cc(Cl)ccc3c(NC(C)CCCN(CCCl)CCCl)c2c1 (stereo not drawn) | 0.733 µM (active) | 0.785 µM (active) | 0.83 µM (active) | 1.3 µM (inactive) | 1.35 µM (inactive) | 0.262 µM (active) | 0.169 µM (active) | 1.1 µM (active) | 0.12 µM (active) | 0.0463 µM (active) | 0.317 µM (active) | 0.159 µM (active) | 0.161 µM (active) |  |  |  |  |  | 
